Tested on: B. Pseudomonas aeruginosa
Test: Induced peritoneal sepsis, survival
Format: in vivo
Details: for Survival (animals alive): bacteria + Gentamycin 1.0 mg/ml i.p.
Protocol: Mice (C3H) were induced with B. Pseudomonas aeruginosa to have peritoneal sepsis, with resultant infection injury to the lung. Fox-Dewhurst, R., et al., Am. J Respir. Crit. Care Med., 155:2030-2040 (1997). Groups of animals (n=4 per group) were treated with doses of bacteria (108-1010 cfu/ml) in the peritoneum. Injection bacteria was prepared in saline at 10×10^7 cfu/ml. 0.3 ml of bacterial solution was injected into the peritoneal cavity. After three minutes, 0.3 ml of saline or 0.5 ml of electrolyzed saline solution was injected intraperitoneally. A group of animals was treated with Gentamycin as a positive control to compare the effectiveness of 25%, 50%, and 100% electrolyzed saline solutions. This group of animals was treated at the time of bacterial inoculation with Gentamycin at a concentration of 1.0 mg/ml intraperitoneally.
Six study groups of mice were studied: saline control, Gentamycin positive control, bacteria plus 25% electrolyzed saline solution, bacteria plus 50% electrolyzed saline solution, bacteria plus 100% electrolyzed saline solution, and bacteria plus saline.

Substance: Gentamycin
- Survival (animals alive) (24 hrs, n=4): 4
- clinical appearance of animals (48 hours, Gentamicin 1.0 mg/ml i.p.): still normal with no sign of sickness
- Survival (animals alive) (48 hrs, n=4): 4
- survival rate (72 hours, Gentamicin 1.0 mg/ml i.p.): 50%
- animals died (72 hours, Gentamicin 1.0 mg/ml i.p., n=4): 2
- Survival (animals alive) (72 hrs, n=4): 2

Source: patent US20060039996A1, “Method for treating sepsis” (priority 2004, published 2006)
